According to article PMC9996706, “A curcumin direct protein biosensor for cell‐free prototyping” (Engineering Biology, 2022):

Molecular target: T1, EcCurA (E. coli curcumin reductase, double bond reductase) (Escherichia coli, UniProt P76113)
T1 construct: gene curA
T1 sequence (P76113 1-345): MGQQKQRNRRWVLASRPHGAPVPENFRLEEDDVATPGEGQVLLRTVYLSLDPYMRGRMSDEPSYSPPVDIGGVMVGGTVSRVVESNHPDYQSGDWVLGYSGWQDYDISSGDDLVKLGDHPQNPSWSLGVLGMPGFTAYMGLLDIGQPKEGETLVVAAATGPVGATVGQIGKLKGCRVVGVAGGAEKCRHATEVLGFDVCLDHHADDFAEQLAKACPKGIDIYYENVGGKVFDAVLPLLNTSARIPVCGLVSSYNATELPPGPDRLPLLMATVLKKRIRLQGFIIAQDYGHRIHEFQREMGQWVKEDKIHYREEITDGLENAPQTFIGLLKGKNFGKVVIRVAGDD
Assay: fluorescence titration
Format: binding

Kd: 8.39 µM
SMILES: COc1cc(/C=C/C(=O)CC(=O)/C=C/c2ccc(O)c(OC)c2)ccc1O [curcumin]
